Test [1] has as its system human OPC derived from ES cells (O4+ cells). The test can be described thus: hOPC differentiation assay, O4+ cells (immunostaining, high content screening). Format: cell-based. The method, then:
In order to initiate differentiation 20,000 GPCs were seeded in each well of Matrigel coated plates of 96 wells, or on PolyD-Lysine/laminin (PDL/lam)-coated 96 well plates. Cells were grown in GM media for two to three days. Then GM was replaced by differentiation medium without growth factors, (DMEM/F12, 1% B27, 0.5% N2, Vitamin C (Sigma, 50 ug/ml). Differentiation medium was supplemented with the following tested compounds: […] All media were replaced every other day. Oligodendrocytes were characterized by the presence of the antigen detected by the monoclonal antibody O4 (IgM (R&D). Living cells reacted with O4 antibody diluted 1/200 in medium without growth factors (50 ul/well) and left for 40 minutes in the incubator at 37° C., washed once with GM, fixed with PFA 4% (170 ul per well) for 20 minutes at room temperature, washed 3 times with PBS. Dapi diluted to 0.5 ug/ml was introduced in the second wash for 10 min Afterwards the preparation was blocked with 5% normal goat serum in PBS-- for 20 min, washed and reacted with goat anti mouse IgM Ab-FITC conjugated (Millipore cat A[…]) diluted 1/500, for 45 minutes at room temperature, and washed three times with PBS--. ArrayScan VTI HCS reader system (Cellomis, Thermo-scientific) was used for scanning at least 20 fields for each tested well under 10× objective in both assays (differentiation and myelination). Cellomics Neural profiling bio-application was used for processing and analyzing the images. For differentiation assay, the following parameters were tested: number and percentage of O4+ cells, number of processes, processes length and number of branching points. For myelination assay, the same morphological parameters were tested and in addition: areas of myelinated axons in pixels (MBP&NF overlap area) and Number of myelinated regions (MBP&NF overlap count) were also analyzed. Modifications in the Neuro-profiling bio-application were conducted for this specific purpose. T-test analysis was used to compare between treatments. The 4-parameter Hill-Slope curve fittings were generated by GraphPad Prism software using least squares fitting method and EC50 values were calculated.

Test [2] relates to hPSC derived oligodendrocytes co-cultured with rodent dorsal root ganglia neurons (MBP+ cells). Put plainly: Co-culture myelination assay (human oligodendrocytes with DRG neurons), MBP staining. Format: cell-based. The procedure: ArrayScan VTI HCS reader system (Cellomis, Thermo-scientific) was used for scanning at least 20 fields for each tested well under 10× objective in both assays (differentiation and myelination). Cellomics Neural profiling bio-application was used for processing and analyzing the images. For differentiation assay, the following parameters were tested: number and percentage of O4+ cells, number of processes, processes length and number of branching points. For myelination assay, the same morphological parameters were tested and in addition: areas of myelinated axons in pixels (MBP&NF overlap area) and Number of myelinated regions (MBP&NF overlap count) were also analyzed. Modifications in the Neuro-profiling bio-application were conducted for this specific purpose. T-test analysis was used to compare between treatments. The 4-parameter Hill-Slope curve fittings were generated by GraphPad Prism software using least squares fitting method and EC50 values were calculated.
DRG dissociated cells from mouse embryonic day 13 (E13) or rat embryonic day (E15) were seeded on matrigel and PDL-coated 96 well plates (20,000 cells/well). In order to allow long culture and co-culture of neuron axons in 96 well plates without de-attachment, a method where the periphery of each well was scratched leaving sticky edges (and smooth surface) was developed. This scratch methodology enables long lasting culture of neuron axons on 96 well format. Once DRG neurons were seeded they were fed with Neurobasal medium (Gibco) supplemented with B27 (Gibco) and 50 ng/ml NGF (Alomone labs) (NB medium) for 2-3 weeks prior hES-OPC addition. […]
For testing maturation and myelination capacity of the hPSC derived oligodendrocytes, a co-culture system between rodent dorsal root ganglia (DRGs) and hPSCs derived oligodendrocytes was used. The number of MBP+ cells (MBP, a marker of oligodendrocytes' myelin) and Myelin formation (measured by co-localization area between MBP and neurofilament positive neuronal axons) was quantified.

Entries after “also recorded” stand apart in the source; their conditions may differ.

Consider `c1ccc2c(-c3cnn4cc(-c5ccc(N6CCNCC6)cc5)cnc34)ccnc2c1` [LDN-193189], for which the “O4+ cells number / conversion of Olig2+ cells into O4+ cells (summary statement)” value in test [1] was “increased the number of O4+ and Olig2+ cells; also recorded: stimulates”. Also, the “number of O4+ cells” value in test [1] (day 21, Noggin 50 ng/ml + PDGF 20 ng/ml, Dorsomorphin 2 μM, LDN-193189 125 nM) is recorded as “increase in the number of O4+ cells”. Also, in test [1] (dose dependent manner), the “number of processes per cell” value is listed as “increased” and the “total length of processes” value was “increased”. In test [2], the “MBP+ cells number / differentiation into MBP+ cells (summary statement)” value is listed as “increased also the number of MBP+ cells”. Also, the “number of MBP+ cells (mature oligodendrocytes)” value in test [2] (14 days co-culture, 125 nM LDN-193189 added to MYL media with 50 ng/ml Noggin, vs Noggin alone) was “increased the number of MBP+ cells; also recorded: significant increase”. Besides, in test [2] (14 days co-culture, Noggin+LDN-193189 vs Noggin alone), the total cell count result was “no difference was observed”.

The values are drawn from US20170095512A1, “METHODS OF INDUCING MYELINATION AND MATURATION OF OLIGODENDROCYTES” (KADIMASTEM LTD., priority 2014, published 2017).
